{"source": "patent US5516936A", "about": "“Inhibitors of kynureninase” (University of Georgia Research Foundation, Inc., priority 1993, dated 1996)", "key": {"Kynureninase": {"molecular_target": "T1, Kynureninase (Pseudomonas fluorescens, UniProt P83788)", "T1 construct": "Bacterial kynureninase was prepared from cells of Pseudomonas fluorescens; endogenous in cells; partially purified by DEAE-cellulose and ammonium sulfate", "T1 sequence (P83788 1-416)": "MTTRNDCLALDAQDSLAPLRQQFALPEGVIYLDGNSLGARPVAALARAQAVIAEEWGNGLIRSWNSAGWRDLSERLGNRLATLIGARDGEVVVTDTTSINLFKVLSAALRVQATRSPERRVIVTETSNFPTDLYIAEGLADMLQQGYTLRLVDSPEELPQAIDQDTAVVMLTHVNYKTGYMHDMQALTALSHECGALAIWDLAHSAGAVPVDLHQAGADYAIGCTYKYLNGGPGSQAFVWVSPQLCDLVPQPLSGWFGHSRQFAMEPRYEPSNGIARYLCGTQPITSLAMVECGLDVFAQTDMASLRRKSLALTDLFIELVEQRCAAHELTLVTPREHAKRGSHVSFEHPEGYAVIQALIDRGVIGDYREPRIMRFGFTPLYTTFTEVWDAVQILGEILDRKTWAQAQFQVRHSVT", "assay": "Competitive inhibition of kynureninase by S-aryl cysteines and S-aryl cysteine sulfones", "type": "biochemical", "details": "for Ki: Table 1; for inhibition (in words): bacterial kynureninase; for fold decrease in Ki value: relative to unsubstituted S-phenyl-L-cysteine", "method": "Bacterial kynureninase was prepared from cells of Pseudomonas fluorescens (ATCC 11250, for example) essentially as described by .Hayaishi and Stanier (1952) J. Biol. Chem. 195:735-740. Cells were grown on a minimal medium containing 0.1% L-tryptophan as the sole carbon and nitrogen source.\nFrom 100 1 of medium, grown for 18 h at 30° C. 230 g of wet cell paste was obtained. The cells were suspended in 1 of 0.01M potassiumphosphate, pH 7.0, and disrupted by 2 passages through a Manton-Gaulin homogenizer. After centrifugation of the cell extract for 1 h at 10000 g, the enzyme was partially purified by ion-exchange chromatography on DEAE-cellulose and ammonium sulfate precipitation.\nKynureninase activity was measured at 25° C. by following the decrease in absorbance at 360 nm (ε=-4500M^-1 cm^-1). A typical assay mixture contained 0.4 mM L-kynurenine in 0.04M potassium phosphate, pH 7.8, containing 40 μM pyridoxal-5'-phosphate, at 25° C. The reactions of S-aryl cysteines and S-aryl cysteine sulfones with kynureninase were performed using a spectrophotometric coupled assay with lactate dehydrogenase and NADH, by monitoring a decrease in absorbance due to pyruvate formation. A typical assay mixture contained 30 μl lactate dehydrogenase solution (2 mg/ml), 0.1 mM NADH, 40 μM pyridoxal-5'-phosphate, 0.04M tris.HCl buffer, pH 7.8, with varying concentrations of the compounds. The competitive inhibition of these compounds was measured by variation of L-kynurenine concentrations at several fixed values of the inhibitor. Km and Vmax values were calculated by fitting of initial rate data to the Michaelis-Menten equation with ENZFITTER (Elsevier) on a Z-286 personal computer. KI values were determined from the equation:\nv=Vmax[S]/ (Km (1+[I]/Ki)+[S]"}, "bacterial kynureninase [1]": {"system": "bacterial kynureninase", "details": "Hayaishi (1955); cited from earlier work"}, "[2]": {"system": "kynureninase of P. fluorescens", "details": "Tanizawa and Soda (1979); cited from earlier work"}, "bacterial kynureninase [3]": {"system": "bacterial kynureninase", "details": "Kishore (1984); cited from earlier work"}, "[4]": {"details": "competitive inhibition vs L-kynurenine, pH 7.8, 25° C., footnote 1: 0.07 is an upper limit, read-out: Ki"}}, "note": "Read-outs that look alike come from different tables or passages of the source."}
{"smiles": "N[C@@H](CS(=O)(=O)c1ccccc1[N+](=O)[O-])C(=O)O", "values": [{"measurement": "Ki", "setting": "Kynureninase; [4]", "value": 23, "unit": "µM"}]}
{"smiles": "N[C@@H](CS(=O)(=O)c1ccc([N+](=O)[O-])cc1)C(=O)O", "values": [{"measurement": "Ki", "setting": "Kynureninase; [4]", "value": 12, "unit": "µM"}]}
{"smiles": "Nc1ccc(SC[C@H](N)C(=O)O)cc1", "values": [{"measurement": "Ki", "setting": "Kynureninase; [4]", "value": 140, "unit": "µM"}]}
{"smiles": "Nc1ccc(S(=O)(=O)C[C@H](N)C(=O)O)cc1", "values": [{"measurement": "Ki", "setting": "Kynureninase; [4]", "value": 8.5, "unit": "µM"}]}
{"smiles": "COc1cccc(C(=O)C[C@H](N)C(=O)O)c1N", "note": "[3-methoxy-L-kynurenine]", "values": [{"measurement": "substrate of bacterial kynureninase (in words)", "setting": "bacterial kynureninase [1]", "value": "do not react with bacterial kynureninase"}]}
{"smiles": "Nc1cc(F)ccc1C(=O)C[C@H](N)C(=O)O", "note": "[4-fluoro-L-kynurenine]", "values": [{"measurement": "substrate of kynureninase (in words)", "setting": "[2]", "value": "substrates"}]}
{"smiles": "Nc1ccc(F)cc1C(=O)C[C@H](N)C(=O)O", "note": "[5-fluoro-L-kynurenine]", "values": [{"measurement": "substrate of kynureninase (in words)", "setting": "[2]", "value": "substrates"}]}
{"smiles": "Nc1ccc(O)cc1C(=O)C[C@H](N)C(=O)O", "note": "[5-hydroxy-L-kynurenine]", "values": [{"measurement": "substrate of bacterial kynureninase (in words)", "setting": "bacterial kynureninase [1]", "value": "substrates"}, {"measurement": "substrate of kynureninase (in words)", "setting": "[2]", "value": "substrates"}]}
{"smiles": "Cc1ccc(N)c(C(=O)C[C@H](N)C(=O)O)c1", "note": "[5-methyl-L-kynurenine]", "values": [{"measurement": "substrate of kynureninase (in words)", "setting": "[2]", "value": "substrates"}]}
{"smiles": "Nc1ccccc1C(=O)C[C@@H](N)C(=O)O", "note": "[D-kynurenine]", "values": [{"measurement": "substrate of kynureninase (in words)", "setting": "[2]", "value": "not substrates"}]}
{"smiles": "NC(=O)C[C@H](N)C(=O)O", "note": "[L-asparagine]", "values": [{"measurement": "substrate of kynureninase (in words)", "setting": "[2]", "value": "not substrates"}]}
{"smiles": "N[C@@H](COS(=O)(=O)O)C(=O)O", "note": "[L-serine O-sulfate]", "values": [{"measurement": "inactivation of kynureninase (in words)", "setting": "bacterial kynureninase [3]", "value": "inactivated kynureninase"}, {"measurement": "reaction with kynureninase (in words)", "setting": "bacterial kynureninase [3]", "value": "react with kynureninase to give pyruvate and ammonia"}]}
{"smiles": "Nc1ccccc1S(=O)(=O)C[C@H](N)C(=O)O", "note": "[S-(2-aminophenyl)-L-cysteine sulfone]", "values": [{"measurement": "Ki", "setting": "Kynureninase; [4]", "value": "≤ 0.07", "unit": "µM"}, {"measurement": "Ki", "setting": "Kynureninase; read-out: Ki", "value": "~0.07", "unit": "µM"}, {"measurement": "inhibition (in words)", "setting": "Kynureninase", "value": "considerably more potent inhibitor of kynureninase"}]}
{"smiles": "Nc1ccccc1SC[C@H](N)C(=O)O", "note": "[S-(2-aminophenyl)-L-cysteine]", "values": [{"measurement": "Ki", "setting": "Kynureninase; [4]", "value": 2.5, "unit": "µM"}, {"measurement": "Ki", "setting": "Kynureninase; read-out: Ki value", "value": 2.2, "unit": "µM"}, {"measurement": "fold decrease in Ki value", "setting": "Kynureninase", "value": 318, "unit": "fold"}]}
{"smiles": "N[C@@H](CSC(=O)c1ccccc1)C(=O)O", "note": "[S-benzoyl-L-cystsine]", "values": [{"measurement": "substrate of kynureninase (in words)", "setting": "[2]", "value": "not substrates"}]}
{"smiles": "N[C@@H](CS(=O)(=O)c1ccccc1)C(=O)O", "note": "[S-phenyl-L-cysteine sulfone]", "values": [{"measurement": "Ki", "setting": "Kynureninase; [4]", "value": 3.9, "unit": "µM"}, {"measurement": "Ki", "setting": "Kynureninase; read-out: Ki value", "value": 3.9, "unit": "µM"}, {"measurement": "fold decrease in Ki value", "setting": "Kynureninase", "value": 180, "unit": "fold"}]}
{"smiles": "N[C@@H](CSc1ccccc1)C(=O)O", "note": "[S-phenyl-L-cysteine]", "values": [{"measurement": "Ki", "setting": "Kynureninase; [4]", "value": 700, "unit": "µM"}, {"measurement": "Ki", "setting": "Kynureninase; read-out: Ki value", "value": 700, "unit": "µM"}, {"measurement": "inhibition (in words)", "setting": "Kynureninase", "value": "very weak inhibitor"}]}
{"smiles": "Nc1ccccc1C(O)C[C@H](N)C(=O)O", "note": "(stereo partly drawn) [dihydrokynurenine, α,2-diamino-γ-hydroxybenzenebutanoic acid]", "values": [{"measurement": "Km", "setting": "[2]", "value": 67, "unit": "µM"}, {"measurement": "Vmax / reactivity relative to L-kynurenine", "setting": "[2]", "value": "about 65%"}, {"measurement": "substrate of kynureninase (in words)", "setting": "[2]", "value": "substrate"}]}
{"smiles": "CC(=O)OC[C@H](N)C(=O)O", "note": "[o-acetyl-L-serine]", "values": [{"measurement": "inactivation of kynureninase (in words)", "setting": "bacterial kynureninase [3]", "value": "inactivated kynureninase"}, {"measurement": "reaction with kynureninase (in words)", "setting": "bacterial kynureninase [3]", "value": "react with kynureninase to give pyruvate and ammonia"}]}
{"smiles": "N[C@@H](CC(=O)c1cccc(O)c1)C(=O)O", "note": "[β-(m-hydroxybenzoyl)-L-alanine]", "values": [{"measurement": "substrate of bacterial kynureninase (in words)", "setting": "bacterial kynureninase [1]", "value": "do not react with bacterial kynureninase"}]}
{"smiles": "Nc1ccccc1C(=O)CCC(=O)O", "note": "[β-(o-aminobenzoyl)propanoic acid]", "values": [{"measurement": "substrate of bacterial kynureninase (in words)", "setting": "bacterial kynureninase [1]", "value": "do not react with bacterial kynureninase"}]}
{"smiles": "N[C@@H](CC(=O)c1ccccc1O)C(=O)O", "note": "[β-(o-hydroxybenzoyl)-L-alanine]", "values": [{"measurement": "substrate of bacterial kynureninase (in words)", "setting": "bacterial kynureninase [1]", "value": "substrates"}]}
{"smiles": "Nc1ccc(C(=O)C[C@H](N)C(=O)O)cc1", "note": "[β-(p-aminobenzoyl)-L-alanine]", "values": [{"measurement": "substrate of bacterial kynureninase (in words)", "setting": "bacterial kynureninase [1]", "value": "do not react with bacterial kynureninase"}]}
{"smiles": "O=C(O)CCC(=O)c1ccccc1", "note": "[β-benzoylpropanoic acid]", "values": [{"measurement": "substrate of bacterial kynureninase (in words)", "setting": "bacterial kynureninase [1]", "value": "do not react with bacterial kynureninase"}]}
{"smiles": "N[C@@H](CCl)C(=O)O", "note": "[β-chloro-L-alanine]", "values": [{"measurement": "inactivation of kynureninase (in words)", "setting": "bacterial kynureninase [3]", "value": "inactivated kynureninase"}, {"measurement": "reaction with kynureninase (in words)", "setting": "bacterial kynureninase [3]", "value": "react with kynureninase to give pyruvate and ammonia"}]}
{"smiles": "N#CC[C@H](N)C(=O)O", "note": "[β-cyano-L-alanine]", "values": [{"measurement": "inactivation of kynureninase (in words)", "setting": "bacterial kynureninase [3]", "value": "inactivated kynureninase"}, {"measurement": "reaction with kynureninase (in words)", "setting": "bacterial kynureninase [3]", "value": "react with kynureninase to give pyruvate and ammonia"}]}
